Data published in patent publication US4203986A, “M-Trifluoro-methylphenyl-piperazine” (Metabio-Joullie, priority 1977, dated 1980).
Like-named read-outs stand apart in the source and are kept apart here.

How the values were obtained:
Acute toxicity in Mice = type: in vivo, mice (SWISS, EOPS, NMRI/Han, female); conditions: for LD50 at 360 h / MTD at 360 h: mouse, in vivo; for LD50 at 360 h / LD 50: method of KARBER and BEHRENS; for MTD at 360 h: read-out: LD 0 (maximum dose tolerated); for LD 0 (maximum dose tolerated) / LD 50: 21600 min
Protocol: The compounds are administered in increasing doses (in arithmetic progression) to groups of five .female. SWISS, EOPS, NMRI/Han mice of the EVIC CEBA strain and having a mean weight of 22 g.
For intravenous administration the compounds are dissolved in distilled water, for oral administration they are suspended in 10% gum arabic solution (volume administered: 0.5 ml/22 g body weight).
The LD 50's are calculated according to the method of KARBER and BEHRENS (B.) (Arch. Exp. Path. Pharmakol. 1935, 177, 379-388).
For each administration method, there is indicated:
LD 0 or maximum dose tolerated.
LD 100 or minimum lethal dose.
The number of animals surviving in the different groups is definitively verified 15 days after administrating the compounds.

[1] = system: coughing by stimulation of the superior larynx nerve; assay: Antitussive action in the cat (stimulation of the superior larynx nerve); type: in vivo; conditions: for effect on coughing in cats (in words): i.v.
Protocol: The cats all thriving, male or female of weight between 1.5 and 2.5 kg (test on 10 cats) are anaesthesised by nembutal at a dose of 30 mg/kg interperitoneally.
A cannula having three branches is placed in the trachea. Two of the branches are connected to a device for registering intratracheal pressure (MERCURY gas pressure gauge connected to an RACIA polygraph) The third branch allows elimination of part of the respiratory volume.
A cannula is placed in the femoral vein for administration of the test substances.
The stimulation parameters are as follows: frequency: 5 cycles per sec, amplitude: 5 millisec, voltage: 4 to 6 volts, duration: 15 to 45 sec. (according to the sensitivity of the animal).
There are carried a minimum of 3 stimulations spaced by 5 minutes and provoking coughing attacks of the same severity. The compound is then administered intravenously. The stimulation is then carried out every 5 minutes. If the compound reduces or suppresses the coughing the stimulation is continued until the reappearance of coughing to approximately the same degree as the initial coughing.
The results are expressed as a percentage reduction in the number of coughs.

[2] = system: coughing induced by aqueous citric acid aerosol; assay: Antitussive action in the guinea pig (citric acid aerosol); type: in vivo; conditions: for inhibition in vivo at 22 mg/kg: 22 mg/kg p.o.; for antitussive activity (in words): oral
Source text: The technique used is that of SIECKMANN (W.) (in "Notions techniques de Pharmacologie generale" by Michel COLOT, page 75, Masson, Edit, 1972).
The guinea pigs .female. of mean weight 400 g, unanaesthesised, are subjected to the tussigenic effect of aerosols of a 7.5% aqueous citric acid solution. The animals are placed one by one in a cylindrical chamber having at its two extremities two canals, one serving as entrance for the aerosol and the other as its exit.
On the exit tube there is a lateral connection to a MERCURY gas pressure differential gauge joined to an RACIA counter. An adjustable screw clamp placed on the exit tube downstream of the lateral canal permits regulation of the sensitivity of the system such that the normal respiration of the animal only registers very weakly and that displacement of air in the chamber provoked by coughing attack is recorded clearly in the form of vertical traces.
Each guinea pig is first submitted to a control test for 5 minutes. One hour later it receives the test compound. It is replaced in the chamber for 5 minutes, 1 hour after oral administration of the compound.
The number of coughing attacks before and after administration is counted and the percentage inhibition is calculated.

[3] = Test on the cataleptic action in rats; type: in vivo; conditions: p.o., every 30 minutes for 6 hours
Protocol: (7) Test on the cataleptic action in rats (groups of 5 animals)
After administration p.o. of the test compounds, the degree of catalepsy is noted every 30 minutes for 6 hours by the test of crossing of the homolateral feet according to BOISSIER (J.R.) and SIMON (P.) (Therapy, 1963, 18, 1257-1277) and using the following notation:
0=animal which is not cataleptic
132 animal conserving position on one side only
2=animal conserving position on both sides

[4] = Cavia porcellus, po, 1 h, read-out: Percentages of inhibition of coughing

Structure (SMILES)	LD 100 (minimum lethal dose) (Acute toxicity in Mice; intravenous administration) [mg/kg]	LD50 at 360 h (Acute toxicity in Mice; iv, intravenous administration) [mg/kg]	MTD at 360 h (Acute toxicity in Mice; iv, intravenous administration) [mg/kg]	LD 100 (minimum lethal dose) (Acute toxicity in Mice; oral administration) [mg/kg]	LD50 at 360 h (Acute toxicity in Mice; po, oral administration) [mg/kg]	MTD at 360 h (Acute toxicity in Mice; po, oral administration) [mg/kg]	other results
OC(CN1CCN(c2cccc(C(F)(F)F)c2)CC1)CN1CCN(c2cccc(C(F)(F)F)c2)CC1 [LJ 1152, 1,3-bis[4-(m-Trifluoromethylphenyl)-piperazino]-propan-2-ol]	50	36	25	375			LD 0 (maximum dose tolerated) (Acute toxicity in Mice; oral administration): 125 mg/kg; LD 50 (Acute toxicity in Mice; oral administration): 225 mg/kg; % maximum reduction in the number of coughs ([1]; 3.6 mg/kg i.v.): 76%; % maximum reduction in the number of coughs ([1]; 7.2 mg/kg i.v.): 100%; effect on coughing in cats (in words) [1]: comparable with those of codeine; inhibition in vivo at 22 mg/kg [2, 4]: 64%; inhibition in vivo at 72 mg/kg ([2]; Cavia porcellus, po, 1 h, 72 mg/kg p.o., read-out: Percentages of inhibition of coughing): 75%; antitussive activity (in words) [2]: also active if not more active than codeine
OC(CN1CCN(c2cccc(C(F)(F)F)c2)CC1)CN1CCN(c2cccc(C(F)(F)F)c2)CC1 [LJ 1154, 1,3-bis[4-(m-Trifluoromethylphenyl)-piperazino]-propan-2-ol]	44			200			LD 0 (maximum dose tolerated) (Acute toxicity in Mice; intravenous administration): 25 mg/kg; LD 50 (Acute toxicity in Mice; intravenous administration): 37.5 mg/kg; LD 0 (maximum dose tolerated) (Acute toxicity in Mice; oral administration): 50 mg/kg; LD 50 (Acute toxicity in Mice; oral administration): 135 mg/kg; % maximum reduction in the number of coughs ([1]; 4 mg/kg i.v.): 80%; % maximum reduction in the number of coughs ([1]; 8 mg/kg i.v.): 100%; effect on coughing in cats (in words) [1]: comparable with those of codeine; inhibition in vivo at 6.75 mg/kg ([2]; Cavia porcellus, po, 1 h, 6.75 mg/kg p.o., read-out: Percentages of inhibition of coughing): 66%; inhibition in vivo at 13.5 mg/kg ([2]; Cavia porcellus, po, 1 h, 13.5 mg/kg p.o., read-out: Percentages of inhibition of coughing): 78%; antitussive activity (in words) [2]: also active if not more active than codeine
O=C(CN1CCN(c2cccc(C(F)(F)F)c2)CC1)CN1CCN(c2cccc(C(F)(F)F)c2)CC1 [LJ 1163]	22.5	18	12.5	250	180	125	% maximum reduction in the number of coughs ([1]; 1.8 mg/kg i.v.): 50%; Delay in the disappearance of protective effect ([1]; 1.8 mg/kg i.v.): Fleeting; % maximum reduction in the number of coughs ([1]; 3.6 mg/kg i.v.): 62%; inhibition in vivo at 9 mg/kg ([2]; Cavia porcellus, po, 1 h, 9 mg/kg p.o., read-out: Percentages of inhibition of coughing): 64%; inhibition in vivo at 18 mg/kg ([2]; Cavia porcellus, po, 1 h, 18 mg/kg p.o., read-out: Percentages of inhibition of coughing): 78%; antitussive activity (in words) [2]: also active if not more active than codeine
OCC(O)CN1CCN(c2ccc(F)c(C(F)(F)F)c2)CC1 (stereo not drawn) [LJ 1121, 3-[4-(3-Trifluoromethyl-4-fluorophenyl)-piperazino]propane-1,2-diol]				1250	925	500	
OC(CN1CCN(c2ccc(F)c(C(F)(F)F)c2)CC1)CN1CCN(c2ccc(F)c(C(F)(F)F)c2)CC1 [LJ 1198, 1,3-bis[4-(3-Trifluoromethyl-4-fluorophenyl)-piperazino)-propan-2-ol]				400	225	50	inhibition in vivo at 22 mg/kg [2, 4]: 50%
OCCN1CCN(c2ccc(F)c(C(F)(F)F)c2)CC1 [LJ 1195, 2-[4-(3-Trifluoromethyl-4-fluorophenyl)-piperazino]-ethanol]				1250	844	300	
O=C1CCCCCC1CN1CCN(c2cccc(C(F)(F)F)c2)CC1 (stereo not drawn) [LJ 1176, 2-[4-(m-Trifluoromethylphenyl)-piperazino]-methyl-cycloheptanone]				2500	1950	1500	inhibition in vivo at 200 mg/kg ([2]; Cavia porcellus, po, 1 h, 200 mg/kg p.o., read-out: Percentages of inhibition of coughing): 78%; cataleptic effect [3]: absence of cataleptic effect
OC1CCCCC1CN1CCN(c2cccc(C(F)(F)F)c2)CC1 (stereo not drawn) [LJ 1161, 2-[4-(m-Trifluoromethylphenyl)-piperazino]-methyl-cyclohexanol]	87.5	66	50	2000	1500	750	inhibition in vivo at 150 mg/kg ([2]; Cavia porcellus, po, 1 h, 150 mg/kg p.o., read-out: Percentages of inhibition of coughing): 75%; cataleptic effect [3]: absence of cataleptic effect
OC1CCCCC1N1CCN(c2cccc(C(F)(F)F)c2)CC1 (stereo not drawn) [LJ 1143, 2-[4-(m-Trifluoromethylphenyl)-piperazino]-cyclohexanol]	81	69	56	1000	625	250	
OCC(O)CN1CCN(c2cccc(C(F)(F)F)c2)CC1 (stereo not drawn) [LJ 1142, 3-[4-(m-Trifluoromethylphenyl)-piperazino]-propane-1,2-diol]	300	252	225	1500	1120	750	
OC(CN1CCN(c2cccc(C(F)(F)F)c2)CC1)CN1CCN(c2cccc(C(F)(F)F)c2)CC1 [LJ 1145, 1,3-bis[4-(m-Trifluoromethylphenyl)-piperazino]-propan-2-ol]				1000			LD 0 (maximum dose tolerated) (Acute toxicity in Mice; oral administration): 200 mg/kg; LD 50 (Acute toxicity in Mice; oral administration): 580 mg/kg; inhibition in vivo at 58 mg/kg ([2]; Cavia porcellus, po, 1 h, 58 mg/kg p.o., read-out: Percentages of inhibition of coughing): 58%
O=C1CCCCC1CN1CCN(c2ccc(F)c(C(F)(F)F)c2)CC1 (stereo not drawn) [LJ 1196, 2-[4-(3-Trifluoromethyl-4-fluorophenyl)-piperazino]-methyl-cyclohexanone]				1250	937	625	
COc1ccc2c3c1O[C@H]1[C@@H](O)C=C[C@H]4[C@@H](C2)N(C)CC[C@@]341 [Codeine, reference compound]							% maximum reduction in the number of coughs ([1]; 3.5 mg/kg i.v.): 100%; inhibition in vivo at 35 mg/kg ([2]; Cavia porcellus, po, 1 h, 35 mg/kg p.o., read-out: Percentages of inhibition of coughing): 64%; inhibition in vivo at 70 mg/kg ([2]; Cavia porcellus, po, 1 h, 70 mg/kg p.o., read-out: Percentages of inhibition of coughing): 71%
